Values quoted from earlier work, collected in patent publication US9839609B2 (priority 2009, dated 2017).

Key:
[1] = in vivo
[2] = chronic administration
[3] = oral, rats

fraction of DMSO metabolized into MSM in the body [1]	Structure (SMILES)	dose chronically administered without any serious adverse effects [2] [g/kg daily]	LD50 [3]
Approximately 17%	C[S+](C)[O-] [DMSO, Dimethyl sulfoxide]	5	
	CS(C)(=O)=O [MSM, Methylsulfonylmethane]		approximately 17 g/kg
